Data as given in the kinase profiling compilation of Christmann-Franck et al. (2016).

Legend:
Assay in all cases: radiometric filter-binding kinase assay, Kinase HotSpot
Details in all cases: compound 0.5 µM; ATP 10 µM
[1] = biological target: AKT1 (human) (UniProt P31749)
[2] = biological target: MLTK (human) (UniProt Q9NYL2)
[3] = biological target: ERBB4 (human) (UniProt Q15303)
[4] = biological target: PLK2 (human) (UniProt Q9NYY3)
[5] = biological target: FLT1 (human) (UniProt P17948)
[6] = biological target: MAP3K14 (human) (UniProt Q99558)
[7] = biological target: PRKCG (human) (UniProt P05129)
[8] = biological target: PRKCA (human) (UniProt P17252)
[9] = biological target: RAF1 (human) (UniProt P04049)
[10] = biological target: DYRK3 (human) (UniProt O43781)
[11] = biological target: IKBKE (human) (UniProt Q14164)
[12] = biological target: MAP3K7 TAB1 (human) (UniProt O43318+Q15750)
[13] = biological target: INSR (human) (UniProt P06213)
[14] = biological target: STK11 (human) (UniProt Q15831)
[15] = biological target: NEK11 (human) (UniProt Q8NG66)
[16] = biological target: PASK (human) (UniProt Q96RG2)
[17] = biological target: EPHA5 (human) (UniProt P54756)
[18] = biological target: ADRBK2 (human) (UniProt P35626)
[19] = biological target: PAK3 (human) (UniProt O75914)
[20] = biological target: TSSK2 (human) (UniProt Q96PF2)
[21] = biological target: CSNK1A1 (human) (UniProt P48729)
[22] = biological target: PRKD3 (human) (UniProt O94806)
[23] = biological target: MAP4K4 (human) (UniProt O95819)
[24] = biological target: MUSK (human) (UniProt O15146)
[25] = biological target: MAP4K5 (human) (UniProt Q9Y4K4)
[26] = biological target: PDGFRB (human) (UniProt P09619)
[27] = biological target: PKN1 (human) (UniProt Q16512)
[28] = biological target: GRK4 (human) (UniProt P32298)
[29] = biological target: IKBKB (human) (UniProt O14920)
[30] = biological target: EPHA8 (human) (UniProt P29322)
[31] = biological target: PRKACA (human) (UniProt P17612)
[32] = biological target: CDK4 CCND1 (human) (UniProt P24385+P11802)
[33] = biological target: KDR (human) (UniProt P35968)
[34] = biological target: CSNK2A2 (human) (UniProt P19784)
[35] = biological target: CLK3 (human) (UniProt P49761)
[36] = biological target: MYLK2 (human) (UniProt Q9H1R3)
[37] = biological target: EPHB2 (human) (UniProt P29323)
[38] = biological target: CSNK1E (human) (UniProt P49674)
[39] = biological target: CAMKK2 (human) (UniProt Q96RR4)
[40] = biological target: MAPKAPK2 (human) (UniProt P49137)
[41] = biological target: RPS6KA5 KD2 (human) (UniProt O75582)
[42] = biological target: RET (human) (UniProt P07949)

Sequence of MLTK (human) (Q9NYL2 whole entry, looked up): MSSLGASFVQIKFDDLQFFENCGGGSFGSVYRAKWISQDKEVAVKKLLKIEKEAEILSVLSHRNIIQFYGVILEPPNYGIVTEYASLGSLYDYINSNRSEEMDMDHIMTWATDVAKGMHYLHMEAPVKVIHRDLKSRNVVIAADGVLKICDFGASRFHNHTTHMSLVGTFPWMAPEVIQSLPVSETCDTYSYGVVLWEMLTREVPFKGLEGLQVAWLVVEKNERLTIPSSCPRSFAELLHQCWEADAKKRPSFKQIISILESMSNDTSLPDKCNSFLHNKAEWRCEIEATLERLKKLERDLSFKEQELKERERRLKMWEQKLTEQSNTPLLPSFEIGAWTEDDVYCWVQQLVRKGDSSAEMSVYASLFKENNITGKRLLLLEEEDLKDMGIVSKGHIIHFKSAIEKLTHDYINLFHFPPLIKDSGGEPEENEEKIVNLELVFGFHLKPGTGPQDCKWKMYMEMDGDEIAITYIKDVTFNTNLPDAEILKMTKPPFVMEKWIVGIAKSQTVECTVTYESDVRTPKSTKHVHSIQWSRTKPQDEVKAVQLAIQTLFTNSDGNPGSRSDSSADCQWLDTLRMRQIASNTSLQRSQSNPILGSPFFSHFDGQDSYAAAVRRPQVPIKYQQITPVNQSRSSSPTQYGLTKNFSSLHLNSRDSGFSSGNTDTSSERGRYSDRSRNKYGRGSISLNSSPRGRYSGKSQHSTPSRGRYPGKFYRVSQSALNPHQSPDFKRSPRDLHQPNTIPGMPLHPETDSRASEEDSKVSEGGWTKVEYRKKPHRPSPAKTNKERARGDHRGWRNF
Sequence of PAK3 (human) (O75914 whole entry, looked up): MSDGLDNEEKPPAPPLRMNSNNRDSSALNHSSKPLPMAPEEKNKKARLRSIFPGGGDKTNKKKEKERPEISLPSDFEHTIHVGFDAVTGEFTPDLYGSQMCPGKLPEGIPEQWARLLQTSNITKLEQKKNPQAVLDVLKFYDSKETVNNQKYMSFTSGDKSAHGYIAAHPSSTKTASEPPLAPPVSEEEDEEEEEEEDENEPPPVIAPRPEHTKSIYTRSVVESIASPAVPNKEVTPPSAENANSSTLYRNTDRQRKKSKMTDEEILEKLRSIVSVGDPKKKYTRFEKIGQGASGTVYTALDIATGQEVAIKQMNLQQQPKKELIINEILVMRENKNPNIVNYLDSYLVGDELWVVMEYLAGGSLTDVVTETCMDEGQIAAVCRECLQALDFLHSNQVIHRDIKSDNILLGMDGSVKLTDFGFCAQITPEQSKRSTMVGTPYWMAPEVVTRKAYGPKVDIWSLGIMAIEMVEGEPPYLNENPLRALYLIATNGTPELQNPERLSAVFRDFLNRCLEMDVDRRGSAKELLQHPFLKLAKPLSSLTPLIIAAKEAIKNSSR
Sequence of CDK4 CCND1 (human) (P11802 whole entry, looked up): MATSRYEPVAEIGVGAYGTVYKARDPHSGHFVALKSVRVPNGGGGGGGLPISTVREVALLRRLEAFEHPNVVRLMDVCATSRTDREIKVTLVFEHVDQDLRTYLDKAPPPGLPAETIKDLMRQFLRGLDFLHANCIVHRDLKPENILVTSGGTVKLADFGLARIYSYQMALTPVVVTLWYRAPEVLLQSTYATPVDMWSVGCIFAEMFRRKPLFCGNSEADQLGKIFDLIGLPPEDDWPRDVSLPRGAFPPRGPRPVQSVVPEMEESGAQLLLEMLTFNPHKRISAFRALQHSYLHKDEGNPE
Sequence of CDK4 CCND1 (human) (P24385 whole entry, looked up): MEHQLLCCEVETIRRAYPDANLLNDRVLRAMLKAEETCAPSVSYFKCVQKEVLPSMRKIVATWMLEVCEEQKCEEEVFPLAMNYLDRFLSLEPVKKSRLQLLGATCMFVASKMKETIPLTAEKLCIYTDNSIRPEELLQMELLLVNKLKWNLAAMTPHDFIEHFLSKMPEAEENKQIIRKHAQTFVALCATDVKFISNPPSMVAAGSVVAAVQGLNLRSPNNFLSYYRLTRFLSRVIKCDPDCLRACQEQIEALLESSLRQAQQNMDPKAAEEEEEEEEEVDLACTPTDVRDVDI
Sequence of DYRK3 (human) (O43781 whole entry, looked up): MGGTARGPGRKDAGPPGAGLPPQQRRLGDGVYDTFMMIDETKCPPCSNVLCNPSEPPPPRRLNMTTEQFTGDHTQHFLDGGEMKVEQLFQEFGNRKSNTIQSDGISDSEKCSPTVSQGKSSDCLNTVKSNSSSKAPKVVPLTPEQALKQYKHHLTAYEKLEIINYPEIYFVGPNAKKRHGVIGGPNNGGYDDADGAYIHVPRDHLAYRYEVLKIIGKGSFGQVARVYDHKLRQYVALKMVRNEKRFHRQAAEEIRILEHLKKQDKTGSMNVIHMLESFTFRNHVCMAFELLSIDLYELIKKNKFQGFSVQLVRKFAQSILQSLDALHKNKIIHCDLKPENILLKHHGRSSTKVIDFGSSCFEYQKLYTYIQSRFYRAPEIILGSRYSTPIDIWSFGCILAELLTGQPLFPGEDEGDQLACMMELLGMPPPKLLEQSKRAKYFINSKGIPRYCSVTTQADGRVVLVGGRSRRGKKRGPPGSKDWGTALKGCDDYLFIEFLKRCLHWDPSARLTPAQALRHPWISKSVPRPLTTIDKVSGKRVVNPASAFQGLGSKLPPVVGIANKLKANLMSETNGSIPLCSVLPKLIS
Sequence of CSNK2A2 (human) (P19784 whole entry, looked up): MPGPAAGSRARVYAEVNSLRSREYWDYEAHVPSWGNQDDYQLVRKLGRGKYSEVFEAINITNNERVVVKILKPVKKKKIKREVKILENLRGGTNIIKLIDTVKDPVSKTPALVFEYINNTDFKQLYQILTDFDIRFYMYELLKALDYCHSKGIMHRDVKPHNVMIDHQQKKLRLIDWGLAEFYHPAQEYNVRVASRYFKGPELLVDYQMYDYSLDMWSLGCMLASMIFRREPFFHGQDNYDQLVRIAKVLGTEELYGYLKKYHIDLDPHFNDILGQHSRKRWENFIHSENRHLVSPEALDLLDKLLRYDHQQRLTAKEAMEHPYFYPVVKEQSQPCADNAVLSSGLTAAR
Sequence of STK11 (human) (Q15831 whole entry, looked up): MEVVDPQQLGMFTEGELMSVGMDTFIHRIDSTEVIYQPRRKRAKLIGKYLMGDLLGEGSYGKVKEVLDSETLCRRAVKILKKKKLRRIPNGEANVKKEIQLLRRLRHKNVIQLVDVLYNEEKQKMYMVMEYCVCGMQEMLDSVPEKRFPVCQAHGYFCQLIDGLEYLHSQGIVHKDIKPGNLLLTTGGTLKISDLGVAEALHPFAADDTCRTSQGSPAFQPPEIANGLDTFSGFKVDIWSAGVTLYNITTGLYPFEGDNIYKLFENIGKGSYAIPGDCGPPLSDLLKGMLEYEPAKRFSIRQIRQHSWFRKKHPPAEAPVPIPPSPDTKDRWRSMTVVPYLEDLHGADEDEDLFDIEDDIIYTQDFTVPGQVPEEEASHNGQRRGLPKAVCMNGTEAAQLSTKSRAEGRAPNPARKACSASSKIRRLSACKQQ

CCN(CC)CCNC(=O)c1c(C)[nH]c(/C=C2\C(=O)Nc3ccc(Cl)cc32)c1C
residual activity [1]: 102%
residual activity [2]: 95.8%
residual activity [3]: 86.1%
residual activity [4]: 91.2%
residual activity [5]: 34.4%
residual activity [6]: 118%
residual activity [7]: 101%
residual activity [8]: 93.1%
residual activity [9]: 117%
residual activity [10]: 81.8%
residual activity [11]: 29.4%
residual activity [12]: 3.51%
residual activity [13]: 30.1%
residual activity [14]: 80.7%
residual activity [15]: 83.4%
residual activity [16]: 89.6%
residual activity [17]: 90.4%
residual activity [18]: 97.8%
residual activity [19]: 93.8%
residual activity [20]: 66.9%
residual activity [21]: 75.7%
residual activity [22]: 8.04%
residual activity [23]: 4.33%
residual activity [24]: 63.5%
residual activity [25]: 0.833%
residual activity [26]: 9.28%
residual activity [27]: 36.5%
residual activity [28]: 80.8%
residual activity [29]: 101%
residual activity [30]: 99.5%
residual activity [31]: 90%
residual activity [32]: 74.1%
residual activity [33]: 13.8%
residual activity [34]: 64.3%
residual activity [35]: 101%
residual activity [36]: 10%
residual activity [37]: 87.5%
residual activity [38]: 46.7%
residual activity [39]: 48%
residual activity [40]: 103%
residual activity [41]: 59%
residual activity [42]: 2.47%

O=C1NC(=O)C(c2cn(CCCn3ccnc3)c3ccccc23)=C1Nc1ccccc1
residual activity [1]: 101%
residual activity [2]: 104%
residual activity [3]: 59.6%
residual activity [4]: 101%
residual activity [5]: 85.7%
residual activity [6]: 96.1%
residual activity [7]: 51.6%
residual activity [8]: 32%
residual activity [9]: 105%
residual activity [10]: 103%
residual activity [11]: 87%
residual activity [12]: 93.8%
residual activity [13]: 84.4%
residual activity [14]: 89.9%
residual activity [15]: 75.6%
residual activity [16]: 98%
residual activity [17]: 96.1%
residual activity [18]: 97.9%
residual activity [19]: 100%
residual activity [20]: 97.9%
residual activity [21]: 102%
residual activity [22]: 80%
residual activity [23]: 64%
residual activity [24]: 51.6%
residual activity [25]: 66.5%
residual activity [26]: 76.5%
residual activity [27]: 22.7%
residual activity [28]: 91.6%
residual activity [29]: 110%
residual activity [30]: 104%
residual activity [31]: 94%
residual activity [32]: 99.1%
residual activity [33]: 90.2%
residual activity [34]: 87.6%
residual activity [35]: 93.9%
residual activity [36]: 95.7%
residual activity [37]: 98.4%
residual activity [38]: 96.7%
residual activity [39]: 51.3%
residual activity [40]: 102%
residual activity [41]: 36.9%
residual activity [42]: 95.6%
